Data on one sequence can be found in article PMC7536072, “Molecular and functional characterization of somatostatin-type signalling in a deuterostome invertebrate” (Open Biology, 2020).

Bridges are numbered along the chain shown (N, C = ends). Where no end group is shown, it is not given here.

For one assay, the system named is ArSSR3. In words: GFP-aequorin luminescence receptor activation assay, CHO-K1 cells, ArSSR3 + Gα16. It counts as cell-based, Asterias rubens.
The subject of assay [1] is tube foot preparations from A. rubens. Put plainly: in vitro relaxation of tube foot preparations. Details: species or system Asterias rubens. The method, then: Synthetic ArSS2 ([…], with a disulfide bridge between the cysteine residues) was custom synthesized (Peptide Protein Research Ltd, Fareham, UK) to enable testing of its pharmacological effects on in vitro preparations of organs/muscles from A. rubens. ArSS2 was tested for its in vitro effects on the contractility of tube foot, apical muscle and cardiac stomach preparations from at least six different specimens of A. rubens. Individual tube foot preparations were dissected from starfish arms with their corresponding ampulla intact. […] Data collected from PowerLab were visualized as traces and analysed using LabChart (v. 8.0.7) software installed on a laptop computer (Lenovo E540, Windows 7 Professional). […]
(§1) To examine the effects of ArSS2 on tube foot and cardiac stomach preparations, 10^−6 M acetylcholine (ACh) or artificial seawater (ASW) containing 30 mM added KCl was used to induce contraction of these preparations, respectively. Once a stable baseline contracted state was achieved, synthetic ArSS2 was added into the organ bath to sequentially achieve final concentrations in the range of 10^−10 to 10^−6 M. For these experiments, the contracting effect of 10^−6 M ACh or ASW containing 30 mM added KCl was defined as 100% and the relaxing effects of ArSS2 were then calculated as a percentage reversal of the 100% contracted state.

Assay [2] has as its system cardiac stomach preparations from A. rubens. Put plainly: in vitro relaxation of cardiac stomach preparations. Details: species or system Asterias rubens. The method, then: Synthetic ArSS2 ([…], with a disulfide bridge between the cysteine residues) was custom synthesized (Peptide Protein Research Ltd, Fareham, UK) to enable testing of its pharmacological effects on in vitro preparations of organs/muscles from A. rubens. ArSS2 was tested for its in vitro effects on the contractility of tube foot, apical muscle and cardiac stomach preparations from at least six different specimens of A. rubens. Individual tube foot preparations were dissected from starfish arms with their corresponding ampulla intact. Then cotton ligatures were tied around the ambulacral body wall and the tube foot disc and then the external epithelium of the tube foot was scraped off using a blunt scalpel blade to facilitate penetration of peptides when tested in vitro, as described previously. Apical muscle preparations were dissected from the aboral body wall with approximately 1 cm strips of apical muscle tied at each end with cotton ligatures. Cardiac stomach preparations were dissected as described previously and then were tied at the aboral side of the cardiac stomach and around the oesophagus with cotton ligatures. The dissected preparations were tied to a fixed metal hook orally and to a high-grade isotonic transducer (MLT0015; ADInstruments Ltd; Oxford, UK) aborally, suspended in a 20 ml aerated organ bath containing artificial seawater at approximately 11°C. The transducer was connected via a bridge amplifier (FE221 Bridge Amp, ADInstruments Ltd, Oxford, UK) to data acquisition hardware (PowerLab 2/36, ADInstruments Ltd, Oxford, UK). Data collected from PowerLab were visualized as traces and analysed using LabChart (v. 8.0.7) software installed on a laptop computer (Lenovo E540, Windows 7 Professional).
as §1
Experiments were performed where the effects of ArSS2, S2 and asterotocin (at 10^−7 and 10^−6 M) on cardiac stomach preparations (n = 6) were compared. For these experiments, the effect of 10^−7 or 10^−6 M S2 was defined as 100% and the effect of asterotocin or ArSS2 was calculated as a % of the effect of S2. To determine if there were significant differences in magnitude of the relaxing effects of the three peptides on cardiac stomach preparations, data were analysed statistically using a two-tailed Student's t-test in Prism 6.

Assay [3] concerns cardiac stomach of A. rubens. In words: in vivo cardiac stomach eversion after injection into the perivisceral coelom. Also noted: species or system Asterias rubens. The note with it: n = 10. The protocol: When starfish (A. rubens) feed, the cardiac stomach is relaxed and everted out of the mouth over the digestible soft tissues of prey (e.g. mussels). […] Therefore, because ArSS2 causes relaxation of cardiac stomach preparations in vitro, we investigated if ArSS2 also triggers cardiac stomach eversion when injected in vivo. Firstly, 15 medium-sized starfish were starved for one week to normalize their physiological status. A Hamilton […] 50 μl syringe (Sigma-Aldrich; Gillingham, UK) was used to inject 10 μl 1 mM ArSS2, or 10 μl 1 mM asterotocin (positive control) or 10 μl water (negative control) into the […] coelom of starfish. ArSS2 was tested on five individuals firstly and then the next day, asterotocin was tested on the same batch of five individuals. For another five individuals, asterotocin was tested first and then ArSS2 was tested on the following day. The remaining five individuals were injected with water as a control. Thus, both ArSS2 and asterotocin were tested on ten starfish. For each starfish, the test agent was injected via two sites in the dorsal body wall of the arms proximal to the junctions with the central disc region. Care was taken to inject test agents into the […] coelom and not into the cardiac stomach.

Where [4] appears, read: 10^−7 M, KCl-contracted, mean, n = 6.
Where [5] appears, read: 10 µl 10^−3 M into perivisceral coelom.

ArSSR3, sequence (as listed by the source): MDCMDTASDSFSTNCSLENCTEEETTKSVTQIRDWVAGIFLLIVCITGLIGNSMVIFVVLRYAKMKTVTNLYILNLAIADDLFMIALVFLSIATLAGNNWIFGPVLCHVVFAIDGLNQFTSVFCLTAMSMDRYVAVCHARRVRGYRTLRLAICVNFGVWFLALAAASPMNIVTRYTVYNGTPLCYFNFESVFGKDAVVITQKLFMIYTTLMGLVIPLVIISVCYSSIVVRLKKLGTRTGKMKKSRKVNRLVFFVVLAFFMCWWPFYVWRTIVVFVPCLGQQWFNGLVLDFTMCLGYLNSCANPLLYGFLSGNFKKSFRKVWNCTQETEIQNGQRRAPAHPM

Take “RAKNARCMADFWKGRGLVDC (disulfide 7-20 (inferred)) [ArSS2]”: the EC50 in the assay with ArSSR3 (ArSSR3 + Gα16 in CHO-K1 cells expressing GFP-aequorin (G5A), peptide 10^−21 to 10^−4 M, luminescence over 35 s, mean of at least three independent experiments, three repeats each, read-out: half-maximal response concentration (EC50)) turned out to be 1.4 nM. In addition, the “mean total luminescence response relative to background” value in the assay with ArSSR3 (ArSSR3, 10^−5 M, background detected with assay media or with ArSS1) was 46 575 times the background luminescence. Also, the “luminescence compared with control” value in the assay with ArSSR3 (ArSSR3, 10^−5 M, vs BSA media (control) and, for ArSS2, vs ArSS1, one-way ANOVA, Bonferroni) was “significantly higher than the luminescence in cells exposed to ArSS1 or BSA media (control)”. Moreover, in the assay with ArSSR3 (ArSSR3, 10^−21 to 10^−4 M), the triggering of luminescence result is recorded as “caused dose-dependent luminescence”. Also, in assay [1] (10^−6 M, contraction induced by 10^−6 M acetylcholine = 100%, artificial seawater, approximately 11°C, mean ± s.e.m., n = 6), the “reversal of ACh-induced tube foot contraction” value is 91% ± 13%. The “relaxation of tube foot preparations” value in assay [1] (pre-contracted with 10^−6 M ACh, tested 10^−10 to 10^−6 M) was “dose-dependent relaxation of tube foot preparations at concentrations between 10^−9 and 10^−6 M”. Moreover, in assay [2] (10^−6 M), the “extent of relaxation of cardiac stomach preparations” value was “maximal relaxation”. Also, in assay [2] (10^−6 M, KCl-contracted, n = 6), the “magnitude of cardiac stomach relaxing action compared with S2” value is recorded as “not significantly different to the effect S2”. Moreover, in assay [2] (10^−6 M, contraction induced by 30 mM KCl = 100%, artificial seawater, approximately 11°C, mean ± s.e.m., n = 10), the “reversal of KCl-induced cardiac stomach contraction” value came out at 60 ± 18%. Further, in assay [2] (setting [4]), the “magnitude of cardiac stomach relaxing action relative to S2” value is on record as 1.5 times the effect of S2 and the “magnitude of cardiac stomach relaxing action relative to asterotocin” value was 44 % of the effect of asterotocin. Moreover, the “relaxing effect compared with S2” value in assay [2] (10^−7 M, two-tailed Student's t-test p = 0.0303, n = 6) is on record as “significantly larger than the effect of S2”. Also, the “relaxation of cardiac stomach preparations” value in assay [2] (pre-contracted with 30 mM KCl, tested 10^−10 to 10^−6 M) was “dose-dependent relaxation of cardiac stomach preparations at concentrations between 10^−9 and 10^−6 M”. Also, the “mean maximal eversion, area of everted cardiac stomach” value in assay [3] (10 µl 10^−3 M into perivisceral coelom, 10 min recording) was “approximately 10 % of the area of the central disc region”. Moreover, in assay [3] (setting [5]), the “incidence of cardiac stomach eversion” value is recorded as “all of the animals” and the “time of mean maximal eversion after injection” value is given as “approximately 4 min”. Further, in assay [3] (10 µl 10^−3 M), the “magnitude of cardiac stomach eversion compared with asterotocin” value is “much less than that induced by asterotocin”.
